pIC50, pKd: −log10 of the molar value.
The compounds below were run against TYK2 (JH2 domain) (Homo sapiens (Human), UniProt P29597) (assay: TYK2 JH2 domain binding assay (DiscoverX KINOMEscan)). Conditions: 11-point 3-fold dilution, duplicate.
TYK2 (JH2 domain), sequence (P29597 589-875): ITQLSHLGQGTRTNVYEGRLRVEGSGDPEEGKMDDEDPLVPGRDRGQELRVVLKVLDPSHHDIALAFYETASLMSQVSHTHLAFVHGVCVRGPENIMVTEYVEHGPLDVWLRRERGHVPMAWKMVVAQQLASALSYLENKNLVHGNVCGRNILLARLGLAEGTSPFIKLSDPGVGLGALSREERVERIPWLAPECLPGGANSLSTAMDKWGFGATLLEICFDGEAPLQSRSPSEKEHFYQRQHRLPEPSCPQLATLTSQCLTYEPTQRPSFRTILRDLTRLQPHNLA
With `COc1c(Nc2cc(N3CCN(C(C)C)C3=O)ncc2C(=O)C2CC2)cccc1-c1ncn(C)n1` [Example 35] the pKd was ≥ 9.00.
With `[2H]C([2H])([2H])NC(=O)c1nnc(/C=C/C2CC2)cc1Nc1cccc(-c2ncn(C)n2)c1OC` [Example 45] the pKd was ≥ 9.00.
With `COc1c(Nc2cc(Cl)nnc2C(=O)C(F)F)cccc1-c1ncn(C)n1` [Example 46] the pKd was ≥ 9.00.
For `[2H]C([2H])([2H])NC(=O)c1nnc(N2CC3(COC3)C2)cc1Nc1cccc(-c2ncn(C)n2)c1OC` [Example 53], the pKd was ≥ 9.00.
Work on `[2H]C([2H])([2H])NC(=O)c1nnc(N2CC(F)(F)C2)cc1Nc1cccc(-c2ncn(C)n2)c1OC` [Example 58] yielded a pKd of 8.00 to 8.30.
`[2H]C([2H])([2H])NC(=O)c1nnc(-n2cccn2)cc1Nc1cccc(-c2ncn(C)n2)c1OC` [Example 65] was tested, and the pKd was 8.00 to 8.30.
`[2H]C([2H])([2H])NC(=O)c1nnc(-n2ccc(C)n2)cc1Nc1cccc(-c2ncn(C)n2)c1OC` [Example 66] gave a pKd of 8.30 to 9.00.
With `[2H]C([2H])([2H])NC(=O)c1nnc(N2CCCC2)cc1Nc1cccc(-c2ncn(C)n2)c1OC` [Example 70] the pKd was 8.30 to 9.00.
Work on `[2H]C([2H])([2H])NC(=O)c1nnc(C=C(C)C)cc1Nc1cccc(-c2ncn(C)n2)c1OC` [Example 73] yielded a pKd of 8.00 to 8.30.
For `[2H]C([2H])([2H])NC(=O)c1nnc(N2CCC3(CCNCC3)C2=O)cc1Nc1cccc(-c2ncn(C)n2)c1OC` [Example 75], the pKd was ≥ 9.00.
Compound `[2H]C([2H])([2H])NC(=O)c1nnc(N2C[C@H](O)CC2=O)cc1Nc1cccc(-c2ncn(C)n2)c1OC` [Example 76] has a pKd of 8.30 to 9.00.
With `[2H]C([2H])([2H])NC(=O)c1nnc(N2CCN(C3CCC3O)C2=O)cc1Nc1cccc(-c2ncn(C)n2)c1OC` (stereo not shown) [Example 81] the pKd was ≥ 9.00.
For `[2H]C([2H])([2H])NC(=O)c1nnc(N2CCN(C(C)C(F)(F)F)C2=O)cc1Nc1cccc(-c2ncn(C)n2)c1OC` (stereo not shown) [Example 83], the pKd was ≥ 9.00.
With `[2H]C([2H])([2H])NC(=O)c1nnc(N2CCN(CC(C)(C)O)C2=O)cc1Nc1cccc(-c2ncn(C)n2)c1OC` [Example 90] the pKd was ≥ 9.00.
For `[2H]C([2H])([2H])NC(=O)c1nnc(N2CCN(C(CO)C(C)C)C2=O)cc1Nc1cccc(-c2ncn(C)n2)c1OC` (stereo not shown) [Example 92], the pKd was ≥ 9.00.
For `[2H]C([2H])([2H])NC(=O)c1nnc(N2CCN(CCN(CC)CC)C2=O)cc1Nc1cccc(-c2ncn(C)n2)c1OC` [Example 93], the pKd was ≥ 9.00.
`[2H]C([2H])([2H])NC(=O)c1nnc(N2CCN(C(C)COC)C2=O)cc1Nc1cccc(-c2ncn(C)n2)c1OC` (stereo not shown) [Example 97] was tested, and the pKd was ≥ 9.00.
For `[2H]C([2H])([2H])NC(=O)c1nnc(N2CCN(C3CC(C)(C)C3)C2=O)cc1Nc1cccc(-c2ncn(C)n2)c1OC` [Example 101], the pKd was ≥ 9.00.
For `[2H]C([2H])([2H])NC(=O)c1nnc(N2CCN(C(CC)CC)C2=O)cc1Nc1cccc(-c2ncn(C)n2)c1OC` [Example 102], the pKd was ≥ 9.00.
Compound `Cn1cnc(-c2cccc3c2OCCOCCOc2nnccc2N3)n1` [Example 104] has a pKd of 8.00 to 8.30.
For `COc1c(Nc2cc(N[S@+]([O-])C(C)(C)C)ncc2C(=O)C2CC2)cccc1-c1ncn(C)n1` [Example 118], the pKd was < 8.00.
`COc1c(Nc2cc(N[S@@+]([O-])C(C)(C)C)ncc2C(=O)C2CC2)cccc1-c1ncn(C)n1` [Example 123] was tested, and the pKd was < 8.00.

Each compound was assayed on INFα induced pSTAT5 in human PBMC (assay: INFα induced pSTAT5 in human PBMC). Conditions: human PBMC, INFα 5000 units/ml; read-out: p-STAT5 IC50.
Assay type: cell-based
Description: Cells were seeded in a round bottom 96-well plate at the concentration of 200,000 cells/well. A 10-point dilution series of test compound (top dose 10 uM, 1:5 dilution) was added to the well using the liquid dispenser (Tecan D300e) and incubated for 1 hour at 37 C. Then human INFα recombinant protein (R&D Systems) was added to the well at the final concentration of 5000 units/ml and incubated for 15 minutes at 37 C. Cell lysates were prepared and analyzed by Phospho STAT3 (Tyr705) cellular kit (Cisbio) or Phospho STAT5 (Tyr693) Kit (Meso Scale Discovery) following manufacturer's protocol.
For calculation of the inhibition rate, the relative pSTAT signal of each well=pSTAT signal of each well−the average pSTAT signal of baseline. The inhibition %=(the average pSTAT signal of INFα treatment wells−the relative of pSTAT signal in each compound containing well)/the average pSTAT signal of INFα treatment wells*100%
The curve was plotted as the inhibition % (y-axis) vs. compounds concentration (x-axis) and was fitted with log(inhibitor) vs. normalized response—Variable slope by GraphPad Prism7.0.
In the case of `COc1c(Nc2cc(Nc3cc(C)ccn3)ncc2C(=O)C2CC2)cccc1-c1ncn(C)n1` [Example 107], the pIC50 was > 7.00.
`COc1c(Nc2cc(Nc3cccnn3)ncc2C(=O)C2CC2)cccc1-c1ncn(C)n1` [Example 109] was tested, and the pIC50 was > 7.00.
For `COc1c(Nc2cc(Nc3ccc(N4CCOCC4)cn3)ncc2C(=O)C2CC2)cccc1-c1ncn(C)n1` [Example 110], the pIC50 was > 7.00.
In the case of `COc1c(Nc2cc(Nc3cc(C)nc(C)n3)ncc2C(=O)C2CC2)cccc1-c1ncn(C)n1` [Example 111], the pIC50 was > 7.00.
In the case of `COc1c(Nc2cc(Nc3cccc(C)n3)ncc2C(=O)C2CC2)cccc1-c1ncn(C)n1` [Example 112], the pIC50 was > 7.00.
In the case of `COc1c(Nc2cc(Nc3ccc(C)nn3)ncc2C(=O)C2CC2)cccc1-c1ncn(C)n1` [Example 113], the pIC50 was > 7.00.

— patent US11053219B2, “Substituted pyridines as TYK2 inhibitors” (FronThera U.S. Pharmaceuticals LLC, priority 2018, dated 2021)
